Values after ≈ are worked out from the molar mass of the structure shown. Values joined by “and” are separate entries in the source; they are usually repeats but may differ in a detail not shown here. Equal entries are not always repeated. “Also recorded” adds a separate entry of the source. Where two headings read alike, the source gives them in different places. Marks after values point to notes of the source that are not given here.
Experiments:
B16-F10 cells [1] = assay: CellTiter-Glo (CTG) Luminescent Cell Viability Assay (cell toxicity); assay type: cell-based, Mus musculus (mouse); details: for IC50: Mus musculus, read-out: IC50 cellular toxicity, skin treatment compound/plant extract
Method: The toxicity of the skin treatment compounds and plant extracts was evaluated using the CellTiter-Glo® (CTG) Luminescent Cell Viability Assay from Promega Corporation. The assay determines the number of viable cells in culture based on quantitation of the ATP present, which is indicative of the presence of metabolically active cells.
The CellTiter-Glo® reagent was added to the cells and the luminescence was obtained according to the assay instructions provided by Promega Corporation. The IC50 was calculated for each skin treatment compound or plant extract and the corresponding positive control.

B16-F10 cells [2] = assay: Melanin synthesis inhibition in B16-F10 cells; assay type: cell-based, Mus musculus (mouse); details: 100 μg/mL, 72 hours, average of two wells
Method: (§1) The effects of the present skin treatment compounds and plant extracts were evaluated in vitro using a B16-F10 (ATCC# CRL-6475) cell model. The B16-F10 cell model is a Mus musculus (mouse) melanoma skin cell line. The skin treatment compounds and plant extracts were evaluated for cell toxicity, inhibition of melanin synthesis, inhibition of tyrosinase enzyme activity, and elimination of existing melanin in B16-F10 cells. Tables 1 and 2 below list the 5 skin treatment compounds and 17 skin treatment plant extracts evaluated, respectively.
The ability of the skin treatment compounds and plant extracts to inhibit melanin synthesis was evaluated. Melanin is the pigment in skin cells that is responsible for coloring of the skin and various pigmentation disorders, such as age spots and freckles. Inhibition of melanin synthesis may result in lightening of the skin color and/or inhibit further darkening of the skin color. Arbutin is a conventional plant-derived compound used in skin lightening treatments and was therefore selected for use as a positive control.
(§2) B16-F10 cells were trypsinized using Trypsin-EDTA (GIBCO Cat. #25200-072) and cell density was determined. The cell slurry was diluted to a concentration of 18,000 cells per milliliter (mL) in a growth media containing RPMI 1640 (GIBCO Cat. #22400-089) supplemented with fetal bovine serum (GIBCO Cat. #10099-141). The diluted cell slurry was dispensed into the wells of a 24 well cell culture plate (BD Falcon Cat. #353047) at 1 mL per well (18,000 cells/well). The cells were incubated overnight at 37° C. and 5% CO2 in humid conditions.
The plated cells were treated by preparing a 200× dilution of each skin lightening compound, plant extract, and arbutin (i.e., the positive control; Sigma Cat. #A4256) in 100% dimethyl sulfoxide (DMSO; Sigma Cat. #D2650). 5 μL of the 200× dilution was added to each well. The treated cells were incubated for 72 hours at 37° C. and 5% CO2 in humid conditions. The skin lightening compounds and plant extracts were evaluated at concentrations of 0 (untreated), 10, 50, and 100 μg/mL. Arbutin was evaluated at concentrations of 0 (untreated), 25, 125, and 250 μg/mL.
When the treatment period was completed, the medium from each well was discarded and the cells were washed once with 1 mL per well of DPBS (Dulbecco's Phosphate-Buffered Saline; Biosera Cat. #LM-S2041). […] The UV absorbance of each well was determined using a plate reader with the primary wave length set to 400 nm.
Melanin synthesis inhibition was determined using the UV absorbance at 400 nm according to the following equation: % Inh=(Max signal−Compound signal)/(Max signal−Min signal)×100

B16-F10 cells [3] = assay: Melanin elimination in forskolin/8-MOP pre-treated B16-F10 cells; assay type: cell-based, Mus musculus (mouse); details: 72 hours, B16-F10 cells pre-treated with forskolin and 8-MOP; for % Melanin Elimination, skin treatment compound/plant extract: 100 μg/mL, average of two wells
Method: as §1
The ability of the skin treatment compounds and plant extracts to eliminate existing melanin within skin cells was evaluated. Melanin is the pigment in skin cells that is responsible for coloring of the skin and various pigmentation disorders, such as age spots and freckles. Elimination of existing melanin inside a cell may result in lightening of the skin color and/or inhibit further darkening of the skin color. […]
as §2, with “Trypsin-EDTA” for “Trypsin-EDTA (GIBCO Cat. #25200-072)”, “1640” for “1640 (GIBCO Cat. #22400-089)”, “serum.” for “serum (GIBCO Cat. #10099-141).”, “plate” for “plate (BD Falcon Cat. #353047)”
Following the overnight incubation, the medium was discarded and replaced with 1 mL per well of growth media including 50 μM forskolin (Sigma Cat. #F6886) and 10 μM 8-Methoxypsoralen (8-MOP; Alfa Aesar Cat. #A17108). The cells were then incubated for 72 hours at 37° C. and 5% CO2 in humid conditions.
The medium in each well was discarded and replaced with 1 mL/well. 5 μL of the 200× dilution was added to each well. The treated cells were incubated for 72 hours at 37° C. and 5% CO2 in humid conditions. The skin lightening compounds and plant extracts were evaluated at concentrations of 0 (untreated), 10, 50, and 100 μg/mL. […]
When the treatment period was completed, the medium from each well was discarded and the cells were washed once with 1 mL per well of DPBS. The DPBS wash was removed and 150 μL of 1N sodium hydroxide was added to each well for 30 minutes while the cells were incubated at 80° C. to lyse the cells. Next, 145 μL from each well was transferred to a UV plate and the remaining 5 μL was tested to determine the protein concentration. The UV absorbance of each well was determined using a plate reader with the primary wave length set to 400 nm.
Melanin elimination was determined using the UV absorbance at 400 nm according to the following equation: % Inh=(Max signal−Compound signal)/(Max signal−Min signal)×100
Where “% Inh” is the percent of melanin eliminated from the cell, the “Max signal” is the UV absorption for cells treated with forskolin and 8-MOP, and the “Min signal” is the UV absorption of untreated cells.

tyrosinase enzyme = target: T1, tyrosinase enzyme (Mus musculus, UniProt P11344); assay: Tyrosinase enzyme activity inhibition in treated B16-F10 cells (L-DOPA); assay type: cell-based; details: 72 hours
T1 construct: endogenous in cells; host or cells: B16-F10 (ATCC# CRL-6475) mouse melanoma cells
T1 sequence (P11344 19-533): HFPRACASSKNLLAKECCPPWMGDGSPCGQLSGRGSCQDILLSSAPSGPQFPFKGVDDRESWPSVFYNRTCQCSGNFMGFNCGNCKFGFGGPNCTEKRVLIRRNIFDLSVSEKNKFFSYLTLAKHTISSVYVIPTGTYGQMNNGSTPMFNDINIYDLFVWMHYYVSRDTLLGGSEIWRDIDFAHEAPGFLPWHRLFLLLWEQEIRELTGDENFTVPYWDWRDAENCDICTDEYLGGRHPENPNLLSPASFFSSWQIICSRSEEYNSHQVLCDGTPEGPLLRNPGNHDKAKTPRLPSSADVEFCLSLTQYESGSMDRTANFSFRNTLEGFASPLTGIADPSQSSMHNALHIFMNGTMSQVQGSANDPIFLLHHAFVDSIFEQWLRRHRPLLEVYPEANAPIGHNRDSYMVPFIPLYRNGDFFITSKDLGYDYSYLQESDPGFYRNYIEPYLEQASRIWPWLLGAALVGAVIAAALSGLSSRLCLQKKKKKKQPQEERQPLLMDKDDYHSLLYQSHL
Method: The ability of the skin treatment compounds and plant extracts to inhibit tyrosinase enzyme activity was evaluated. Tyrosinase enzyme is involved in melanin production and thus inhibition of tyrosinase may suppress melanin production, which may result in lightening of skin color and/or inhibition of further darkening of skin color. Arbutin is a conventional plant-derived compound used in skin lightening treatments and was therefore selected for use as a positive control. B16-F10 cells were trypsinized using Trypsin-EDTA and cell density was determined. The cell slurry was diluted to a concentration of 18,000 cells per milliliter (mL) in a growth media containing RPMI 1640 supplemented with fetal bovine serum. […] Arbutin was evaluated at concentrations of 0 (untreated), 25, 125, and 250 μg/mL. […] The UV absorbance of each well was determined using a plate reader with the primary wave length set to 475 nm. Tyrosinase inhibition was determined using the UV absorbance at 475 nm according to the following equation: % Inh=(Max signal−Compound signal)/(Max signal−Min signal)×100 Where “% Inh” is the percent inhibition of tyrosinase, the “Max signal” is the UV absorption for cells treated with L-DOPA, and the “Min signal” is the UV absorption of cells not treated with L-DOPA.

[4] = B16-F10 cells, 72 hours, 0.01 to 100 ug/mL, CellTiter-Glo

| Structure (SMILES) | IC50 cellular toxicity, skin treatment compound/plant extract (B16-F10 cells [1]; [4]) | % Melanin Synthesis Inhibition, skin treatment compound/plant extract (B16-F10 cells [2]) | % Melanin Elimination, skin treatment compound/plant extract (B16-F10 cells [3]) | further results |
| --- | --- | --- | --- | --- |
| O=C(O)CCCC[C@@H]1CCSS1 (racemic) [Lipoic acid] | >100 mg/L | 30.3** % | 65.7% | % Tyrosinase Inhibition, skin treatment compound/plant extract (tyrosinase enzyme; 100 μg/mL, average of two wells): 98.6% |
| OC[C@H]1O[C@@H](Oc2ccc(O)cc2)[C@H](O)[C@@H](O)[C@@H]1O [Arbutin] | – | – | – | % Tyrosinase Inhibition (Arbutin) (tyrosinase enzyme; arbutin 125 μg/mL, control of the same line): 38.3% and 52.8% |
| CN[C@@H](C)[C@H]1[C@H](O)C[C@@]2(C)[C@@H]3CC[C@H]4C(C)(C)[C@@H](NC)CC[C@@]45C[C@@]35CC[C@]12C [Cyclovirobuxine D] | >100 mg/L | 53.2% | 92.4% | – |
| Oc1ccc(O)cc1 [Hydroquinone, reference compound] | – | – | – | IC50 cellular toxicity, Hydroquinone IC50 (corresponding positive control) (B16-F10 cells [1]; B16-F10 cells, 72 hours, hydroquinone positive control run with the substance of the same line): (7.0) μg/mL; also recorded: (4.2) μg/mL; also recorded: (4.1) μg/mL; % Melanin Elimination (hydroquinone control) (B16-F10 cells [3]; hydroquinone 100 μg/mL): 70.6% |
| COc1cc2c3c(c1OC)-c1ccccc1C[C@H]3N(C)CC2 [Nuciferine] | – | – | 34.1% | IC50 (B16-F10 cells [1]; B16-F10, 72 h): 62.2 mg/L (≈ 211 µM); inhibition at 100 µg/mL (B16-F10 cells [2]; Mus musculus, read-out: % Melanin Synthesis Inhibition, skin treatment compound/plant extract): 104% |
| C/C=C1/[C@H](O[C@@H]2O[C@H](CO)[C@@H](O)[C@H](O)[C@H]2O)OC=C(C(=O)OC)[C@H]1CC(=O)OCCc1ccc(O)c(O)c1 [Oleuropein] | – | – | 37.0% | IC50 (B16-F10 cells [1]; [4]): 90.3 mg/L (≈ 167 µM) |
| CC1=C2C[C@H]3[C@@H](CC(=O)[C@H]4C[C@@H](O)CC[C@@]43C)[C@@H]2CC[C@]12O[C@@H]1C[C@H](C)CN[C@H]1[C@H]2C [Peimisine] | >50 mg/L | 62.1% | 23.8% | – |

— US10537516B2, “Composition for treating skin pigmentation and related methods” (Access Business Group International LLC, priority 2017, dated 2020)
